# Test results as given in ChEMBL document CHEMBL1151696 (Bioorg Med Chem, 2008).
# Activity calls are given as the source filed them. The rule behind the calls is not given here.
# Assays:
# Glutamate NMDA receptor [1] = experiment: Antagonist activity at NMDA receptor in cerebellar granule neurons assessed as inhibition of glutamate-induced increase in intracellular calcium concentration by fluorometric assay; format: functional, cell-based
# Glutamate NMDA receptor [2] = experiment: Antagonist activity at NMDA receptor in cerebellar granule neurons assessed as inhibition of NMDA-induced increase in intracellular calcium concentration by fluorometric assay; format: functional, cell-based
# [3] = system: Vesicular stomatitis virus; format: functional, organism-based
# Human alphaherpesvirus 1 = format: functional, organism-based
# [4] = system: Mammalian orthoreovirus 1; format: functional, organism-based
# Sindbis virus = format: functional, organism-based
# [5] = system: Respiratory syncytial virus; format: functional, organism-based
# Feline coronavirus = format: functional, organism-based
# Human respirovirus 3 = format: functional, organism-based
# Punta Toro virus = format: functional, organism-based
# Human alphaherpesvirus 2 = format: functional, organism-based
# Coxsackievirus B4 = format: functional, organism-based
# Rattus norvegicus = organism: Rattus norvegicus; experiment: Inhibition of [3H]dopamine uptake in Wistar rat striatum synaptosomes at 100 uM by scintillation spectrometry; format: functional, subcellular; parameters: scale not given: the % may be the effect or the level left
Compound,IC50 (Glutamate NMDA receptor [1]) [µM],IC50 (Glutamate NMDA receptor [2]) [µM],Activity [3],Activity (Human alphaherpesvirus 1),Activity [4],Activity (Sindbis virus),Activity [5],Activity (Feline coronavirus),Activity (Human respirovirus 3),Activity (Punta Toro virus),Activity (Human alphaherpesvirus 2),Activity (Coxsackievirus B4),Activity (Rattus norvegicus) [%]
CN(Cc1ccccc1)C12CC3(C)CC1CC3(C)C2,> 200,> 200,inactive,inactive,inactive,inactive,inactive,inactive,inactive,inactive,inactive,inactive,
c1ccc(CNCC23CC4CC(CC2C4)C3)cc1,> 500,138,inactive,inactive,inactive,inactive,inactive,inactive,inactive,inactive,inactive,inactive,57.9
CC12CC3CC1(C)CC3(N)C2,274,23,inactive,inactive,inactive,inactive,inactive,inactive,inactive,inactive,inactive,inactive,54.8
CN(C)CC12CC3(C)CC1CC3(C)C2,> 200,> 200,inactive,inactive,inactive,inactive,inactive,inactive,inactive,inactive,inactive,inactive,
CN(Cc1ccccc1)CC12CC3CC(CC1C3)C2,> 500,178,inactive,inactive,inactive,inactive,inactive,inactive,inactive,inactive,inactive,inactive,45
CC12CC3CC1(C)CC3(NCc1ccccc1)C2,143,70,inactive,inactive,inactive,inactive,inactive,inactive,inactive,inactive,inactive,inactive,
CC12CC3CC1(C)CC3(CNC(=N)N)C2,104,7.1,inactive,inactive,inactive,inactive,inactive,inactive,inactive,inactive,inactive,inactive,
CN(C)CC12CC3CC(CC1C3)C2,> 200,> 200,inactive,inactive,inactive,inactive,inactive,inactive,inactive,inactive,inactive,inactive,62.5
NC(N)=NCC12CC3CC(CC1C3)C2,453,25,,,,,,,,,,,
COc1ccccc1CNC12CC3CC(CC1C3)C2,> 500,92,inactive,inactive,inactive,inactive,inactive,inactive,inactive,inactive,inactive,inactive,58.3
CNCC12CC3CC(CC1C3)C2,> 500,71,inactive,inactive,inactive,inactive,inactive,inactive,inactive,inactive,inactive,inactive,76.3
CC12CC3CC1(C)CC3(NCc1cccs1)C2,204,80,inactive,inactive,inactive,inactive,inactive,inactive,inactive,inactive,inactive,inactive,
CC12CC3CC(C)(C1)CC(N)(C3)C2,,,,,,,,,,,,,53.7
CNCC12CC3(C)CC1CC3(C)C2,> 200,> 200,inactive,inactive,inactive,inactive,inactive,inactive,inactive,inactive,inactive,inactive,57.3
CNC12CC3(C)CC1CC3(C)C2,,35,inactive,inactive,inactive,inactive,inactive,inactive,inactive,inactive,inactive,inactive,74.6
Fc1ccc(CNC23CC4CC(CC2C4)C3)cc1,> 200,> 200,inactive,inactive,inactive,inactive,inactive,inactive,inactive,inactive,inactive,inactive,81.1
N=C(N)NCC12CC3CC(CC1C3)C2,,,inactive,inactive,inactive,inactive,inactive,inactive,inactive,inactive,inactive,inactive,119
CC12CC3CC1(C)CC3(CN1CCCCC1)C2,> 200,> 200,inactive,inactive,inactive,inactive,inactive,inactive,inactive,inactive,inactive,inactive,39.8
